# Results published in patent publication US20020013478A1, “Calanolide analogues and methods of their use” (Sarawak Medichem Pharmaceuticals,Inc., priority 1994, published 2002).
# Read-outs that look alike come from different tables or passages of the source.
# Key:
# [1] = tested on: human foreskin fibroblast cells; assay: Toxicity run with the HCMV assay, human foreskin fibroblast cells; type: cell-based; conditions: Table II
# Procedure, shortened: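 Human foreskin fibroblasts exposed to drug at 37 °C in CO2, either 72 h followed by Coulter Counter counts (triplicate counts, three replicate wells), or seven days followed by dye staining for 1 h and optical density at 550 nm.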
# [2] = tested on: African green monkey kidney (BSC-1) cells; assay: Cytotoxicity run with the measles assay
# Source text: Virus strain: CC (Source: Pennsylvania State University) Cell line: African green monkey kidney (BSC-1) cells.
# HBV = HBV replication in cultures of 2.2.15 cells, extracellular HBV virion DNA (primary assay); conditions: for EC50: read-out: HBV EC50
# CEM-SS cells = assay: CEM-SS MTT assay, cytotoxicity (Table I); type: cell-based, human
# [3] = tested on: HCMV isolates Towne, AD169, E. Mann, Coffman, C9208; assay: Anti-CMV plaque reduction assay against various laboratory and clinical isolates (Example 40); type: cell-based, human cytomegalovirus
# 2.2.15 cells = assay: Toxicity in 2.2.15 cells, neutral red dye uptake; type: cell-based, human; conditions: Table II, read-out: HBV IC50
# Description: Cells of 2.2.15 were grown to confluence in 96-well flat-bottomed tissue culture plates and treated with compounds (in 0.2 mL culture medium/well) as described above. Four concentrations of each compound were assayed, each in triplicate cultures, in 3- to 10-fold steps. Untreated control cultures were maintained on each 96-well plate. On each 96-well plate, wells containing no cells were used to correct for light scattering.
# measles = assay: Measles virus inhibition of viral CPE in BSC-1 cells; type: cell-based; conditions: for EC50: Table II footnote g, read-out: Others EC50, against measles
# Raji or Daudi cells = assay: Toxicity run with the EBV assay; type: cell-based, human; conditions: Table II
# Source text: IC50 (50% inhibitory concentration) is the concentration required to inhibit cell proliferation by 50%
# [4] = tested on: human foreskin fibroblast cells; assay: Cell viability in the CMV plaque reduction assay (MTC); type: cell-based
# Source text: Five calanolide analogues, prepared as described above, were further evaluated for their anti-HCMV activity in plaque reduction assay against various laboratory and clinical isolates (Towne, AD 169, E. Mann, Coffinan, and C9208).
smiles,measurement,setting,value
CCCc1cc(=O)oc2c3c(c4c(c12)OC(C)(C)C=C4)OC(C)C(C)C3=O (racemic) [(±)-7a],EC50,HIV-1; CEM-SS MTT assay,2.82 µM
same,Maximum Protection (%),HIV-1; CEM-SS MTT assay,55%
same,HCMV IC50,[1],19.8 µg/mL
same,IC50,"[2]; read-out: Others IC50, against measles, Table II footnote g",333 µM
same,EC50,HBV; Table II,44 µM
same,IC50,CEM-SS cells,12 µM
same,EC50,[3]; isolate AD169,3.16 µM
same,EC50,[3]; isolate C9208,2.6 µM
same,EC50,[3]; isolate Coffman,3.16 µM
same,EC50,[3]; isolate E. Mann,3.16 µM
same,EC50,[3]; isolate Towne,3.08 µM
same,IC50,2.2.15 cells,32 µM
same,EC50,measles,13.7 µM
same,EBV IC50,Raji or Daudi cells,>50 µg/mL
same,MTC (minimum drug concentration that reduced cell viability by 25%),[4],10 µM
"CCCc1cc(=O)oc2c3c(c4c(c12)OC(C)(C)C=C4)O[C@H](C)[C@@H](C)C3=O [(+)-7, 10(R),11(R)-trans-Dihydro6,6,10,11-tetramethyl-4-propyl-2H,6H,12H-benzo [1,2-b:3,4-b′:5,6-b″]tripyran-2,12-dione]",Maximum Protection (%),HIV-1; CEM-SS MTT assay,90%
same,protecting cells against HIV infection,HIV-1; text summary of Table I,highly efficacious
same,IC50,"[1]; Homo sapiens, Fibroblast",47.9 µg/mL
same,IC50,"[2]; Chlorocebus sabaeus, BSC-1, read-out: Others IC50, against measles",10 µM
same,EC50,HBV; Hepatitis B virus,7.2 µM
same,potency against HBV,HBV; text summary of Table II,potent
same,IC50,CEM-SS cells; Homo sapiens,72.8 µM
same,EC50,"[3]; Human betaherpesvirus 5, AD169, isolate AD169",3.16 µM
same,EC50,"[3]; Human betaherpesvirus 5, AD169, isolate C9208",4.91 µM
same,EC50,"[3]; Human betaherpesvirus 5, AD169, isolate Coffman",4.78 µM
same,EC50,"[3]; Human betaherpesvirus 5, AD169, isolate E. Mann",4.65 µM
same,EC50,"[3]; Human betaherpesvirus 5, AD169, isolate Towne",5.02 µM
same,IC50,2.2.15 cells; Homo sapiens,57 µM
same,EC50,"measles; Measles morbillivirus, BSC-1",3 µM
same,potency against measles,measles; text summary of Table II,potent
same,IC50,Raji or Daudi cells; Homo sapiens,> 50 µg/mL
same,MTC (minimum drug concentration that reduced cell viability by 25%),[4]; isolate AD169,100 µM
same,MTC (minimum drug concentration that reduced cell viability by 25%),[4]; isolate C9208,>100 µM
same,MTC (minimum drug concentration that reduced cell viability by 25%),[4]; isolate Coffman,>100 µM
same,MTC (minimum drug concentration that reduced cell viability by 25%),[4]; isolate E. Mann,100 µM
same,MTC (minimum drug concentration that reduced cell viability by 25%),[4]; isolate Towne,>100 µM
